Data on 14 compounds can be found in US8987195B2 (priority 2012, dated 2015).

pEC50: −log10 of the molar value. Where two headings read alike, the source gives them in different places.

One test relates to HCV genotype 1b replicon. The experiment in a line: HCV replicon assay, genotype 1b replicon EC50. The test is classed as cell-based, Hepatitis C virus. Conditions: genotype 1b replicon, read-out: EC50 [gt-1b]. The procedure:
Measuring Compound Inhibitory Potency (Genotype 1b Replicon EC50 (nM))
Measurement of inhibition by compounds was performed using the HCV replicon system. Several different replicons encoding different HCV genotypes or mutations were used. In addition, potency measurements were made using different formats of the replicon assay, including different ways of measurements and different plating formats. See Jan M. Vrolijk et al., A replicons-based bioassay for the measurement of interferons in patients with chronic hepatitis C, 110 J. VIROLOGICAL METHODS 201 (2003); Steven S. Carroll et al., Inhibition of Hepatitis C Virus RNA Replication by 2′-Modified Nucleoside Analogs, 278(14) J. BIOLOGICAL CHEMISTRY 11979 (2003). However, the underlying principles are common to all of these determinations, and are outlined below.
Stable neomycin phosphotransferase encoding replicon-harboring cell lines were used, so all cell lines were maintained under G418 selection prior to the assay. In some cases the cell lines encoded a luciferase:Neo^r fusion and could be assayed either directly by determination of RNA copy number, or indirectly through measurement of the luciferase activity.
To initiate an assay, replicon cells were plated in the presence of a dilution series of test compound in the absence of G418. Typically, the assays were performed in a 96-well plate format for manual operation, or a 384 well plate in an automated assay. Replicon cells and compound were incubated for 24-48 hours, depending on the assay. At the end of the assay, cells are washed free of media and compound and then lysed. For direct quantitation, RNA levels were measured by ^32P-probe hybridization and protection, or in a TAQMAN based assay and normalized to cellular cyclophilin A RNA levels. In some cases, luciferase activity was measured using a conventional luciferase assay. In all cases EC50 determinations were calculated as a percent of a DMSO control by fitting the data to a four parameter fit function.

For test [1], the target named is HCV NS3/4A protease genotype 1b (Hepatitis C virus genotype 1b, UniProt P26663). The experiment in a line: HCV NS3/4A protease time-resolved fluorescence (TRF) assay, Ki against genotype 1b. The test is classed as biochemical. The following applies: IC50 [gt-1b] (nM), NS3/4A genotype 1b, enzyme 0.2 nM. A digest of the protocol: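 First, protease (genotype 1b 0.2 nM, A156T 0.4 nM, genotype 3a 0.025 nM) is preincubated 30 min with inhibitor. Next, 25 nM TRF substrate starts the reaction, run 2.5 h at room temperature. Finally, europium fluorescence is read and Ki calculated from IC50.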

Consider `Cc1nc2ccccc2c2c1O[C@]1(CC2)C[C@H]2C(=O)N[C@]3(C(=O)NS(=O)(=O)C4(C)CC4)C[C@H]3/C=C\CCCCC[C@H](NC(=O)OC(CN(C)S(C)(=O)=O)C(C)(C)C)C(=O)N2C1` (single isomer, unassigned) [Example 259], for which, in the test with HCV genotype 1b replicon (Hepatitis C virus), the negative-log EC50 (pEC50) is 7.62. This compound registered an IC50 in test [1] of 0.007 nM. As for `Cc1nc2ccccc2c2c1O[C@]1(CC2)C[C@H]2C(=O)N[C@]3(C(=O)NS(=O)(=O)C4(C)CC4)C[C@H]3/C=C\CCCCC[C@H](NC(=O)OC(CN(C)S(C)(=O)=O)C(C)(C)C)C(=O)N2C1` (single isomer, unassigned) [Example 262], the pEC50 in the test on HCV genotype 1b replicon is 7.41. Half-maximal inhibition in test [1] (IC50) required 0.037 nM. Consider `COc1ccc2c3c(c(C4CC4)nc2c1)O[C@]1(CC3)C[C@H]2C(=O)N[C@]3(C(=O)NS(=O)(=O)C4(C)CC4)C[C@H]3/C=C\CCCCC[C@H](NC(=O)CC(C)(C)C)C(=O)N2C1` (single isomer, unassigned) [Example 279], for which the pEC50 with HCV genotype 1b replicon (Hepatitis C virus, HCOOH salt) was 7.65. Further, the IC50 in test [1] (HCOOH salt) was 0.051 nM. `CCc1ccc2nc(C)c3c(c2c1)C(F)C[C@]1(C[C@H]2C(=O)N[C@]4(C(=O)NS(=O)(=O)C5(C)CC5)C[C@H]4/C=C\CCCCC[C@H](NC(=O)OC(C)(C)C)C(=O)N2C1)O3` (single isomer, unassigned) [Example 315]: the pEC50 in the test with HCV genotype 1b replicon is 6.53. In test [1], this compound returned an IC50 of 1.29 nM. As to `CCc1ccc2nc(C)c3c(c2c1)C(F)C[C@]1(C[C@H]2C(=O)N[C@]4(C(=O)NS(=O)(=O)C5(C)CC5)C[C@H]4/C=C\CCCCC[C@H](NC(=O)OC(C)(C)C)C(=O)N2C1)O3` (single isomer, unassigned) [Example 316], the pEC50 in the test on HCV genotype 1b replicon is 8.58. In test [1], this compound had an IC50 of 0.008 nM. The corresponding values for `CCc1ccc2nc(C)c3c(c2c1)C(F)C[C@]1(C[C@H]2C(=O)N[C@]4(C(=O)NS(=O)(=O)C5(C)CC5)C[C@H]4/C=C\CCCCC[C@H](NC(=O)OC(C)(C)C(F)(F)F)C(=O)N2C1)O3` (single isomer, unassigned) [Example 346] are 8.37 and 0.012 nM.

Take `CCc1ccc2nc(C)c3c(c2c1)C(F)C[C@]1(C[C@H]2C(=O)N[C@]4(C(=O)NS(=O)(=O)C5(C)CC5)C[C@H]4/C=C\CCCCC[C@H](NC(=O)OC(C)(C)C(F)(F)F)C(=O)N2C1)O3` (single isomer, unassigned) [Example 347]: the pEC50 in the test on HCV genotype 1b replicon is 5.51. Moreover, the half-maximal inhibitory concentration (IC50) in test [1] was found to be 0.981 nM.

Turning to `Cc1nc2ccc(OC(F)(F)F)cc2c2c1O[C@]1(CC2)C[C@H]2C(=O)N[C@]3(C(=O)NS(=O)(=O)C4(C)CC4)C[C@H]3/C=C\CCCCC[C@H](NC(=O)OC(C)(C)C)C(=O)N2C1` [Example 1, tert-butyl (2R,6S,13aS,14aR,16aS,Z)-5′-methyl-14a-(1-methylcyclopropylsulfonylcarbamoyl)-5,16-dioxo-9′-(trifluoromethoxy)-1′,2′,3,5,6,7,8,9,10,11,13a,14,14a,15, 16,16a-hexadecahydro-1H-spiro[cyclopropa[e]pyrrolo[1,2-a][1,4]diazacyclopentadecine-2,3′-pyrano[2,3-c]quinoline]-6-ylcarbamate], the negative-log EC50 (pEC50) with HCV genotype 1b replicon (Hepatitis C virus) was 8.83. The compound further yielded an IC50 in test [1] of 0.013 nM. As for `CC1(S(=O)(=O)NC(=O)[C@@]23C[C@H]2/C=C\CCCCC[C@H](NC(=O)OC2CCCC2)C(=O)N2C[C@@]4(CCc5c(c(-c6cccc(F)c6)nc6ccccc56)O4)C[C@H]2C(=O)N3)CC1` [Example 81, cyclopentyl [(2R,6S,12Z,13aS,14aR,16aS)-5′-(3-fluorophenyl)-14a-{[(1-methylcyclopropyl)sulfonyl]carbamoyl}-5,16-dioxo-1,1′,2′,5,6,7,8,9,10,11,13a,14,14a,15,16,16a-hexadecahydrospiro[cyclopropa[e]pyrrolo[1,2-a][1,4]diazacyclopentadecine-2,3′-pyrano[2,3-c]quinolin]-6-yl]carbamate], the pEC50 in the test with HCV genotype 1b replicon (Hepatitis C virus) is 8.88.

For the compound `CC1(S(=O)(=O)NC(=O)[C@@]23C[C@H]2/C=C\CCCCC[C@H](NC(=O)NC2CCCC2)C(=O)N2C[C@@]4(CCc5c(c(-c6cccc(F)c6)nc6ccccc56)O4)C[C@H]2C(=O)N3)CC1` [Example 82, (2R,6S,12Z,13aS,14aR,16aS)-6-[(cyclopentylcarbamoyl)amino]-5′-(3-fluorophenyl)-N-[(1-methylcyclopropyl)sulfonyl]-5,16-dioxo-1,1′,2′,6,7,8,9,10,11,13a,14,15,16,16a-tetradecahydrospiro[cyclopropa[e]pyrrolo[1,2-a][1,4]diazacyclopentadecine-2,3′-pyrano[2,3-c]quinoline]-14a(5H)-carboxamide], the pEC50 in the test with HCV genotype 1b replicon (Hepatitis C virus) was 8.37. The same measure, in the same setting: the figure for `CC1(S(=O)(=O)NC(=O)[C@@]23C[C@H]2/C=C\CCCCC[C@H](NC(=O)NC2CCCCC2)C(=O)N2C[C@@]4(CCc5c(c(-c6cccc(F)c6)nc6ccccc56)O4)C[C@H]2C(=O)N3)CC1` [Example 83, (2R,6S,12Z,13aS,14aR,16aS)-6-[(cyclohexylcarbamoyl)amino]-5′-(3-fluorophenyl)-N-[(1-methylcyclopropyl)sulfonyl]-5,16-dioxo-1,1′,2′,6,7,8,9,10,11,13a,14,15,16,16a-tetradecahydrospiro[cyclopropa[e]pyrrolo[1,2-a][1,4]diazacyclopentadecine-2,3′-pyrano[2,3-c]quinoline]-14a(5H)-carboxamide] is 8.43. Same read-out and setting: the figure for `Cc1nc2ccccc2c2c1O[C@]1(CC2)C[C@H]2C(=O)N[C@]3(C(=O)NS(=O)(=O)C4(C)CC4)C[C@H]3/C=C\CCCCC[C@H](NC(=O)CC(F)(F)F)C(=O)N2C1` [Example 84, (2R,6S,12Z,13aS,14aR,16aS)-5′-methyl-N-[(1-methylcyclopropyl)sulfonyl]-5,16-dioxo-6-[(3,3,3-trifluoropropanoyl)amino]-1,1′,2′,6,7,8,9,10,11,13a,14,15,16,16a-tetradecahydrospiro[cyclopropa[e]pyrrolo[1,2-a][1,4]diazacyclopentadecine-2,3′-pyrano[2,3-c]quinoline]-14a(5H)-carboxamide] is 8.11; for `Cc1ccc2nc(C)c3c(c2c1)CC[C@]1(C[C@H]2C(=O)N[C@]4(C(=O)O)C[C@H]4/C=C\CCCCC[C@H](NC(=O)OC(C)(C)C)C(=O)N2C1)O3` [Example 86, (2R,6S,12Z,13aS,14aR,16aS)-6-[(tert-butoxycarbonyl)amino]-5′,9′-dimethyl-5,16-dioxo-1,1′,2′,6,7,8,9,10,11,13a,14,15,16,16a-tetradecahydrospiro[cyclopropa[e]pyrrolo[1,2-a][1,4]diazacyclopentadecine-2,3′-pyrano[2,3-c]quinoline]-14a(5H)-carboxylic acid] it is under 7.00; for `CC(C)OC(=O)N[C@H]1CCCCC/C=C\[C@@H]2C[C@@]2(C(=O)NS(=O)(=O)C2(C)CC2)NC(=O)[C@@H]2C[C@]3(CCc4c(c(-c5cccc(F)c5)nc5ccccc45)O3)CN2C1=O` [Example 89, propan-2-yl [(2R,6S,12Z,13aS,14aR,16aS)-5′-(3-fluorophenyl)-14a-{[(1-methylcyclopropyl)sulfonyl]carbamoyl}-5,16-dioxo-1,1′,2′,5,6,7,8,9,10,11,13a,14,14a,15,16,16a-hexadecahydrospiro[cyclopropa[e]pyrrolo[1,2-a][1,4]diazacyclopentadecine-2,3′-pyrano[2,3-c]quinolin]-6-yl]carbamate] it is 8.55.
